Source: patent publication US6872562B2, “Herbicide resistant dinitrogen fixing bacteria and method of use” (priority 2001, dated 2005)

Legend:
[1] = test system: GR soybean cultivar Terral TV5866RR; assay: Greenhouse Example 1: biomass, nitrogen content and nodules of TV5866RR after postemergence glyphosate; type: in vivo, soybean (Glycine max); conditions: for Nodules per plant Run 1 / Individual nodule mass Run 2 / Nodules per plant Run 2 / Individual nodule mass Run 1: Harvest 2 (40 DAE)
Procedure: Seeds were planted in 15-cm pots with an approximate soil volume of 1.9 L. The potting medium was a nitrogen-free peat/vermiculite/perlite mixture (LB2, Sun Gro Horticulture Inc., 1830 Knob Hill, Garland, Tex. 75403). Soil was saturated with deionized (DI) water and then 500 mL of full-strength, nitrogen-free nutrient solution (de Silva et al., 1996) was added prior to planting. Pots were inoculated with approximately 1×10^7 cells of B. japonicum (USDA 110) at sowing. After emergence, plants were thinned to one per pot and reinoculated with B. japonicum. Plants were well watered by adding deionized (DI) water daily, and each pot received 250 mL of nitrogen-free nutrients weekly after emergence. Day and night temperatures were approximately 30 and 24 C, respectively, and natural illumination was supplemented with 1000 W metal-halide lamps for a day length of 16 h.
Each application was as a postemergence over-the-top spray to soybean plants using a moving-nozzle spray chamber. At each harvest, plants were separated into shoots, roots, and nodules. Nodules were photocopied, and total number of nodules per plant was determined from the photocopies. Plant sections were oven dried at 65 C for 48 h, weighed, and ground to pass a 1-mm sieve. Total nitrogen was determined for shoots and root plus nodule dry matter with a Leco FP-228 Determinator (Leco Corporation, St Joseph, Mich.) by the Agriculture Services Laboratory, University of Arkansas. The experiment consisted of six replications and was repeated. Seed for Run 1 and Run 2 of the experiment were planted on 25 February and 14 April, respectively. […] Treatment means were compared using Fisher's Protected least significant difference (LSD, P≦0.05).

[2] = test system: soybean cultivar DK5961RR; assay: Greenhouse Example 3: response to glyphosate with and without available soil nitrogen; type: in vivo, soybean (Glycine max)
Procedure: Treatments were a factorial arrangement of two harvest dates, plus and minus soil nitrogen, and plus and minus glyphosate application. Experimental conditions were similar to those described for Examples 1 and 2, including timing of nutrient applications. […] Plants were harvested at 19 and 40 DAE as described previously. For the plus nitrogen treatment, plants harvested at 19 and 40 DAE received in the nutrient solution at total of 150 and 300 mg N as NO3^−1, respectively. The experiment was a randomized complete block with six replications and was repeated.

[3] = Harvest 1 (19 DAE), averaged across runs
[4] = TV5866RR, Harvest 1 (19 DAE), early treatment
[5] = TV5866RR, Harvest 1 (19 DAE), early treatment: foliar 1.68 kg ha^−1 at 5 and 12 DAE
[6] = DK5961RR, Harvest 1 (19 DAE), soil nitrogen no
[7] = DK5961RR, Harvest 1 (19 DAE), soil nitrogen yes
[8] = DK5961RR, Harvest 2 (40 DAE), averaged over soil nitrogen treatments

`O=C(O)CNCP(=O)(O)O` [glyphosate, N-(phosphonomethyl)glycine] was tested, and the “Number of nodules per plant vs untreated” value ([1]; Harvest 1 (19 DAE)) was “no difference”, the “Nitrogen accumulation decrease in roots” value [1, 3] was 36% and the “Nitrogen accumulation decrease in shoots” value [1, 3] was 34%. For the same molecule, the Nodule mass effect ([1]; Harvest 1, Run 2, 19 DAE) was “not affected”, the “Total nodule weight decrease” value ([1]; Harvest 1, Run 1) was 34% and the “Nodules per plant Run 1” value ([1]; Early treatment, Run 1) was 138 number. The “Individual nodule mass Run 2” value ([1]; Early treatment, Run 2) was 1.70 mg nodule^−1, the “Nodules per plant Run 2” value ([1]; Early treatment, Run 2) was 256 number and the “Individual nodule mass Run 1” value ([1]; Early: 1.68 kg ha^−1 on 5 and 12 DAE, Run 1) was 2.73 mg nodule^−1. For the same molecule, the “Nodules per plant Run 1” value ([1]; Late treatment, Run 1) was 150 number, the “Individual nodule mass Run 2” value ([1]; Late treatment, Run 2) was 2.00 mg nodule^−1 and the “Nodules per plant Run 2” value ([1]; Late treatment, Run 2) was 209 number. The “Individual nodule mass Run 1” value ([1]; Late: 1.68 kg ha^−1 on 18, 25, and 32 DAE, Run 1) was 2.79 mg nodule^−1, the Root biomass effect ([1]; TV5866RR, Harvest 1) was “not decreased” and the Shoot biomass decrease ([1]; TV5866RR, Harvest 1 (19 DAE)) was 17%. For the same molecule, the “Nitrogen Root” value [1, 4] was 4.2 mg plant^−1, the “Nitrogen Shoot” value [1, 4] was 8.9 mg plant^−1 and the “Biomass Root” value [1, 5] was 0.17 g plant^−1. For the same molecule, the “Biomass Shoot” value [1, 5] was 0.40 g plant^−1, the “Biomass Nodules Run 1” value ([1]; TV5866RR, Harvest 1 (19 DAE), early treatment, Run 1) was 0.043 g plant^−1 and the “Biomass Nodules Run 2” value ([1]; TV5866RR, Harvest 1 (19 DAE), early treatment, Run 2) was 0.088 g plant^−1. For the same molecule, the “Visual observation of plants” value ([1]; between 12 and 20 DAE) was “yellowed”, the “Effect on plant mass, plant color, or plant N content” value ([1]; by 40 DAE in Run 2) was “no apparent effect” and the “Plant biomass or nitrogen content effect” value ([2]; DK5961RR, 19 DAE, without soil nitrogen) was “did not decrease”. The “Biomass Root” value [2, 6] was 0.30b g plant^−1, the “Biomass Shoot” value [2, 6] was 0.63bc g plant^−1 and the “Nitrogen Root” value [2, 6] was 7.53b mg plant^−1. For the same molecule, the “Nitrogen Shoot” value [2, 6] was 22.2c mg plant^−1, the “Biomass Shoot” value [2, 7] was 0.58c g plant^−1 and the “Nitrogen Root” value [2, 7] was 5.77c mg plant^−1. For the same molecule, the “Nitrogen Shoot” value [2, 7] was 31.0b mg plant^−1, the “Biomass Root” value ([2]; DK5961RR, Harvest 1 (19 DAE), soil nitrogen yes, 1.68 kg ha^−1 5 and 12 DAE) was 0.20c g plant^−1 and the “Biomass Root” value [2, 8] was 0.48 g plant^−1. For the same molecule, the “Biomass Shoot” value [2, 8] was 1.81 g plant^−1, the “Nitrogen Root” value [2, 8] was 11.1 mg plant^−1 and the “Nitrogen Shoot” value [2, 8] was 70.7 mg plant^−1. For the same molecule, the “Shoot nitrogen content decrease” value ([2]; Harvest 2 (40 DAE), averaged across soil nitrogen treatments) was 13%.
